The values below come from patent publication US11739070B2, “C5A receptor modulators” (IDORSIA PHARMACEUTICALS LTD, priority 2018, dated 2023).

The target of the assay is T1, C5AR1 (Homo sapiens, UniProt P21730).
T1 construct: host or cells: CHO-K1
T1 sequence (P21730 1-350): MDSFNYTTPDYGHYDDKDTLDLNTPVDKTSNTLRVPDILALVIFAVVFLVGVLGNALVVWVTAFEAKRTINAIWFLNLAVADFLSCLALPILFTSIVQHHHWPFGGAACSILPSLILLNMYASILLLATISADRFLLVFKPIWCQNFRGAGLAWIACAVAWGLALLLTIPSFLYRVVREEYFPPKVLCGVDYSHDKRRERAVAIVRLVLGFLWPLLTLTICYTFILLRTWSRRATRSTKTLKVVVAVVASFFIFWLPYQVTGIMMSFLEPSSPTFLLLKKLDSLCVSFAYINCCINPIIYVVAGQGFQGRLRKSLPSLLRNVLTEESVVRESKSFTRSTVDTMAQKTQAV
As to the kind of experiment: hC5a DISCO IC50 assay (PathHunter beta-arrestin, antagonist mode). The format is cell-based. As to conditions: CHO-K1 C5AR1 beta-arrestin cell line; antagonist vs 1-10 nM C5a agonist; geometric mean values; read-out: C5aR IC50. The essentials:
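Antagonist added first, then 1-10 nM C5a agonist; cells incubated 1.5 h at 37 °C. Beta-arrestin signal developed with PathHunter detection reagent, 45 min at RT. IC50 in nmol/l from serial antagonist dilutions, reported as geometric mean of several measurements.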

One may read the IC50 as the point on the concentration scale where inhibition reaches its midpoint. With `COc1cccc2c1n(Cc1ccccc1C(F)(F)F)c(=O)n2[C@@H]1CCN(c2c(F)cccc2CN(C)CCO)C1` [Example 107, 1-[(R)-1-(2-Fluoro-6-{[(2-hydroxy-ethyl)-methyl-amino]-methyl}-phenyl)-pyrrolidin-3-yl]-4-methoxy-3-(2-trifluoromethyl-benzyl)-1,3-dihydro-benzoimidazol-2-one], the IC50 turned out to be 1320 nM. In the case of `COc1cccc2c1n(Cc1ccccc1C(F)(F)F)c(=O)n2C1CCN(C(=O)OC(C)(C)C)CC1` [Example 1, 4-[4-Methoxy-2-oxo-3-(2-trifluoromethyl-benzyl)-2,3-dihydro-benzoimidazol-1-yl]-piperidine-1-carboxylic acid tert-butyl ester] it was 621 nM; in that of `COc1cccc2c1n([C@@H](C)c1ccccc1C(F)(F)F)c(=O)n2C1CCN(c2c(C)cccc2F)C1` (stereo partly drawn) [Example 219, 1-[1-(2-Fluoro-6-methyl-phenyl)-pyrrolidin-3-yl]-4-methoxy-3-[(S)-1-(2-trifluoromethyl-phenyl)-ethyl]-1,3-dihydro-benzoimidazol-2-one], 34 nM; in that of `COc1cccc2c1n(Cc1ccccc1C(F)(F)F)c(=O)n2C1CCN(C(=O)OC(C)(C)C)CC1(C)C` (centres unmarked) [Example 228, 4-[4-Methoxy-2-oxo-3-(2-trifluoromethyl-benzyl)-2,3-dihydro-benzoimidazol-1-yl]-3,3-dimethyl-piperidine-1-carboxylic acid tert-butyl ester], 259 nM. Regarding `Cc1cccc(C)c1N1CC[C@@H](n2c(=O)n(Cc3ccccc3C(F)(F)F)c3c(NCCO)nccc32)C1` [Example 118, 1-[(R)-1-(2,6-Dimethyl-phenyl)-pyrrolidin-3-yl]-4-(2-hydroxy-ethylamino)-3-(2-trifluoromethyl-benzyl)-1,3-dihydro-imidazo[4,5-c]pyridin-2-one], the IC50 is 201 nM.

Consider `COc1cccc2c1n(Cc1ncccc1C(F)(F)F)c(=O)n2C1CCN(c2c(C)cccc2C)CC1` [Example 75, 1-[1-(2,6-Dimethyl-phenyl)-piperidin-4-yl]-4-methoxy-3-(3-trifluoromethyl-pyridin-2-ylmethyl)-1,3-dihydro-benzoimidazol-2-one], for which the IC50 was determined as 27 nM. In the case of `COc1cccc2c1n(Cc1ccccc1C(F)(F)F)c(=O)n2[C@@H]1CCN(c2c(Cl)c(C)nn2C)C1` [Example 80, 1-[(R)-1-(4-Chloro-2,5-dimethyl-2H-pyrazol-3-yl)-pyrrolidin-3-yl]-4-methoxy-3-(2-trifluoromethyl-benzyl)-1,3-dihydro-benzoimidazol-2-one], the IC50 was 157 nM. The same measure for `COc1cccc2c1n(Cc1ccccc1C(F)(F)F)c(=O)n2C1CC2CC1CN2c1c(C)cccc1F` (centres unmarked) [Example 190, 1-[2-(2-Fluoro-6-methyl-phenyl)-2-aza-bicyclo[2.2.1]hept-5-yl]-4-methoxy-3-(2-trifluoromethyl-benzyl)-1,3-dihydro-benzoimidazol-2-one]: 118 nM; for `COc1cccc2c1n(Cc1ccccc1C(F)(F)F)c(=O)n2[C@@H]1CCN(c2c(F)cccc2C(C)O)C1` (stereo partly drawn) [Example 89, 1-{(R)-1-[2-Fluoro-6-(1-hydroxy-ethyl)-phenyl]-pyrrolidin-3-yl}-4-methoxy-3-(2-trifluoromethyl-benzyl)-1,3-dihydro-benzoimidazol-2-one]: 44 nM; for `COc1cccc2c1n(Cc1ccccc1C(F)(F)F)c(=O)n2[C@@H]1CCN(c2c(F)cccc2CN2CCC(N(C)C)CC2)C1` [Example 136, 1-{(R)-1-[2-(4-Dimethylamino-piperidin-1-ylmethyl)-6-fluoro-phenyl]-pyrrolidin-3-yl}-4-methoxy-3-(2-trifluoromethyl-benzyl)-1,3-dihydro-benzoimidazol-2-one]: 1590 nM. The same measure for `COc1cccc2c1n(Cc1ccccc1C(F)(F)F)c(=O)n2[C@@H]1CCN(c2nnc(C(F)(F)F)o2)C1` [Example 84, 4-Methoxy-3-(2-trifluoromethyl-benzyl)-1-[(R)-1-(5-trifluoromethyl-[1,3,4]oxadiazol-2-yl)-pyrrolidin-3-yl]-1,3-dihydro-benzoimidazol-2-one]: 2030 nM; for `N#Cc1cccc(F)c1N1CC[C@@H](n2c(=O)n(Cc3ccccc3C(F)(F)F)c3c(C(=O)NCCO)cccc32)C1` [Example 193, 1-[(R)-1-(2-Cyano-6-fluoro-phenyl)-pyrrolidin-3-yl]-2-oxo-3-(2-trifluoromethyl-benzyl)-2,3-dihydro-1H-benzoimidazole-4-carboxylic acid (2-hydroxy-ethyl)-amide]: 632 nM; for `COc1ccccc1N1CC[C@@H](n2c(=O)n(Cc3ccccc3C(F)(F)F)c3c(OC)cccc32)C1` [Example 16, 4-Methoxy-1-[(R)-1-(2-methoxy-phenyl)-pyrrolidin-3-yl]-3-(2-trifluoromethyl-benzyl)-1,3-dihydro-benzoimidazol-2-one]: 19 nM.

As to `Cc1cccc(F)c1N1CC[C@@H](n2c(=O)n(Cc3ccccc3C(F)(F)F)c3c(OCCN(C)C)nccc32)C1` [Example 120, 4-(2-Dimethylamino-ethoxy)-1-[(R)-1-(2-fluoro-6-methyl-phenyl)-pyrrolidin-3-yl]-3-(2-trifluoromethyl-benzyl)-1,3-dihydro-imidazo[4,5-c]pyridin-2-one], the IC50 came out at 659 nM. The same measure for `COc1cccc(F)c1N1CC[C@@H](n2c(=O)n(Cc3ccccc3C(F)(F)F)c3c(OC)nccc32)C1` [Example 49, 1-[(R)-1-(2-Fluoro-6-methoxy-phenyl)-pyrrolidin-3-yl]-4-methoxy-3-(2-trifluoromethyl-benzyl)-1,3-dihydro-imidazo[4,5-c]pyridin-2-one]: 132 nM. In the case of `COc1cccc2c1n(Cc1ccccc1C(F)(F)F)c(=O)n2C1CCN(C(C)C)CC1` [Example 35, 1-(1-Isopropyl-piperidin-4-yl)-4-methoxy-3-(2-trifluoromethyl-benzyl)-1,3-dihydro-benzoimidazol-2-one] it was 4510 nM. On to `COc1nccnc1Cn1c(=O)n([C@@H]2CCN(c3c(C)cccc3F)C2)c2cccc(OC)c21` [Example 169, 1-[(R)-1-(2-Fluoro-6-methyl-phenyl)-pyrrolidin-3-yl]-4-methoxy-3-(3-methoxy-pyrazin-2-ylmethyl)-1,3-dihydro-benzoimidazol-2-one], for which the half-maximal inhibitory concentration (IC50) was found to be 17 nM. The same measure for `COc1cccc2c1n(Cc1ccccc1C(F)(F)F)c(=O)n2[C@@H]1CCN(c2c(F)cccc2CN2CCCCC2)C1` [Example 133, 1-[(R)-1-(2-Fluoro-6-piperidin-1-ylmethyl-phenyl)-pyrrolidin-3-yl]-4-methoxy-3-(2-trifluoromethyl-benzyl)-1,3-dihydro-benzoimidazol-2-one]: 70 nM; for `Cc1cccc(F)c1N1CC[C@@H](n2c(=O)n(Cc3ccccc3C(F)(F)F)c3c(OC4CCN(C)C4)nccc32)C1` (stereo partly drawn) [Example 130, 1-[(R)-1-(2-Fluoro-6-methyl-phenyl)-pyrrolidin-3-yl]-4-(1-methyl-pyrrolidin-3-yloxy)-3-(2-trifluoromethyl-benzyl)-1,3-dihydro-imidazo[4,5-c]pyridin-2-one]: 3910 nM.

For the compound `COc1cccc2c1n(Cc1ccccc1C(F)(F)F)c(=O)n2[C@@H]1CCN(C)C1` [Example 31, 4-Methoxy-1-((R)-1-methyl-pyrrolidin-3-yl)-3-(2-trifluoromethyl-benzyl)-1,3-dihydro-benzoimidazol-2-one], the IC50 was found to be 3450 nM. In the case of `COc1cccc2c1n(Cc1ccccc1C(F)(F)F)c(=O)n2C1CCN(c2c(F)cccc2F)CC1` [Example 9, 1-[1-(2,6-Difluoro-phenyl)-piperidin-4-yl]-4-methoxy-3-(2-trifluoromethyl-benzyl)-1,3-dihydro-benzoimidazol-2-one] it was 32 nM; in that of `COc1cccc2c1n(Cc1ccccc1C(F)(F)F)c(=O)n2C1CCN(c2c(C)cccc2F)CC1C` (centres unmarked) [Example 147, 1-[1-(2-Fluoro-6-methyl-phenyl)-3-methyl-piperidin-4-yl]-4-methoxy-3-(2-trifluoromethyl-benzyl)-1,3-dihydro-benzoimidazol-2-one], 20 nM; in that of `Cc1cccc(F)c1N1CC[C@@H](n2c(=O)n(Cc3ccccc3C(F)(F)F)c3c(N(C)CCO)nccc32)C1` [Example 123, 1-[(R)-1-(2-Fluoro-6-methyl-phenyl)-pyrrolidin-3-yl]-4-[(2-hydroxy-ethyl)-methyl-amino]-3-(2-trifluoromethyl-benzyl)-1,3-dihydro-imidazo[4,5-c]pyridin-2-one], 42 nM. In the case of `COc1nccc2c1n(Cc1ccccc1C(F)(F)F)c(=O)n2[C@@H]1CCN(c2c(F)cccc2F)C1` [Example 42, 1-[(R)-1-(2,6-Difluoro-phenyl)-pyrrolidin-3-yl]-4-methoxy-3-(2-trifluoromethyl-benzyl)-1,3-dihydro-imidazo[4,5-c]pyridin-2-one] it was 75 nM; in that of `COCCN(C)Cc1cccc(F)c1N1CC[C@@H](n2c(=O)n(Cc3ccccc3C(F)(F)F)c3c(OC)cccc32)C1` [Example 139, 1-[(R)-1-(2-Fluoro-6-{[(2-methoxy-ethyl)-methyl-amino]-methyl}-phenyl)-pyrrolidin-3-yl]-4-methoxy-3-(2-trifluoromethyl-benzyl)-1,3-dihydro-benzoimidazol-2-one], 227 nM. The same measure for `COCCNC(=O)c1cccc2c1n(Cc1ccccc1C(F)(F)F)c(=O)n2[C@@H]1CCN(c2c(F)cccc2C#N)C1` [Example 194, 1-[(R)-1-(2-Cyano-6-fluoro-phenyl)-pyrrolidin-3-yl]-2-oxo-3-(2-trifluoromethyl-benzyl)-2,3-dihydro-1H-benzoimidazole-4-carboxylic acid (2-methoxy-ethyl)-amide]: 1480 nM.
